Results: ChEMBL document CHEMBL4831484, “Identification of 3, 4-disubstituted pyridine derivatives as novel CDK8 inhibitors” (Eur J Med Chem, 2021)
pIC50: −log10 of the molar value. Active and inactive are the calls of the source. The calls are words filed in the database; no cut-off is given here.

Legend:
[1] = target: CDK8/Cyclin C (Homo sapiens) (UniProt P49336+P24863); assay: Inhibition of CDK8/Cyclin C (unknown origin) at 10 uM measured after 1 hr by plate reader assay relative to control; format: protein-complex assay
HCT-116 = assay: Antiproliferative activity against human HCT-116 cells assessed as inhibition of cell growth measured after 72 hrs by […]; format: functional
CDK8/Cyclin C = CDK8/Cyclin C (Homo sapiens, UniProt P49336); assay: Inhibition of CDK8/Cyclin C (unknown origin) measured after 1 hr by plate reader assay; format: protein-complex assay
A549 = assay: Antiproliferative activity against human A549 cells assessed as inhibition of cell growth measured after 72 hrs by SRB assay; format: functional
MDA-MB-231 = assay: Antiproliferative activity against human MDA-MB-231 cells assessed as inhibition of cell growth measured after 72 hrs by SRB assay; format: functional
KB = assay: Antiproliferative activity against human KB cells assessed as inhibition of cell growth measured after 72 hrs by SRB assay; format: functional
[2] = Antiproliferative activity against human KB-VIN cells assessed as inhibition of cell growth measured after 72 hrs by SRB assay; format: functional; settings: KBVIN
MCF7 = assay: Antiproliferative activity against human MCF7 cells assessed as inhibition of cell growth measured after 72 hrs by SRB assay; format: functional
[3] = target: Cyclin-dependent kinase 8 (Homo sapiens) (UniProt P49336); assay: Inhibition of CDK8 (unknown origin) at 10 uM
[4] = target: Cyclin-C/Cyclin-dependent kinase 19 (Homo sapiens, UniProt Q9BWU1); assay: Inhibition of CDK19/Cyclin C (unknown origin); format: protein-complex assay
Cyclin-C/Cyclin-dependent kinase 19, sequence (Q9BWU1 whole entry): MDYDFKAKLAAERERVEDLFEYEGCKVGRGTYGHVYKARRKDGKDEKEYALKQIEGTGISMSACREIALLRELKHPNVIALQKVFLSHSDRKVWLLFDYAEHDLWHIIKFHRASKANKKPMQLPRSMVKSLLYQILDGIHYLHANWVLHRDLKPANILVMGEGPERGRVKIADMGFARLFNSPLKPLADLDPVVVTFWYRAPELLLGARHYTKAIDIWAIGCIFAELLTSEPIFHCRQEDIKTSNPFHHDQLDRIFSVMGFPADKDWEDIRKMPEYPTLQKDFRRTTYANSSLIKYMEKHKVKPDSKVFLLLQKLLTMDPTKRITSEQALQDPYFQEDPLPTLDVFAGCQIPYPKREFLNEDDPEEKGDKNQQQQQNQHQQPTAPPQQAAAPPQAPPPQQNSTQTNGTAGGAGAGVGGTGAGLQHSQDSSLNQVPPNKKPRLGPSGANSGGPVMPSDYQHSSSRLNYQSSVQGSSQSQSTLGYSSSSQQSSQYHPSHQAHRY
Cyclin-C/Cyclin-dependent kinase 19, sequence (P24863 whole entry, further chain): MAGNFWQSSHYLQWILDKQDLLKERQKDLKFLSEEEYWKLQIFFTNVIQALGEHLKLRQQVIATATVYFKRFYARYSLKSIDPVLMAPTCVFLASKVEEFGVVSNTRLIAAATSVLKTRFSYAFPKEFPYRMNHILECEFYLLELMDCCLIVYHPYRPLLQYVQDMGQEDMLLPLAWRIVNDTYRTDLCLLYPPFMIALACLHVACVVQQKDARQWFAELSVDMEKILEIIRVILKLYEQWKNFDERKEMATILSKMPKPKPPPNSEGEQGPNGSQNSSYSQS

Cyclin-dependent kinase 8 (Homo sapiens), sequence (P49336 whole entry): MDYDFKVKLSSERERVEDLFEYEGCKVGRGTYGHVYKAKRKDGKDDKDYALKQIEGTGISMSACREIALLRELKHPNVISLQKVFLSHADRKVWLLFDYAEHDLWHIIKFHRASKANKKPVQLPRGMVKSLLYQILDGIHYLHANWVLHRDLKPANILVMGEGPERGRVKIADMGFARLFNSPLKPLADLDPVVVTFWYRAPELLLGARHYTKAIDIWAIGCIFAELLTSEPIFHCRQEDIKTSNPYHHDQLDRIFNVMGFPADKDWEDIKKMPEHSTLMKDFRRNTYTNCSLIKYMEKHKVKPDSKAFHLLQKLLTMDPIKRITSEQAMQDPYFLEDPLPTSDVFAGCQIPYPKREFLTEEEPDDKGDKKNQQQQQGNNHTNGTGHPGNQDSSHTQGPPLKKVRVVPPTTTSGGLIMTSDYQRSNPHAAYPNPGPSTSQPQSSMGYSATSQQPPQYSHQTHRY
CDK8/Cyclin C, sequence (P49336 whole entry): as above
CDK8/Cyclin C, sequence (P24863 whole entry, further chain): as the sequence (P24863 whole entry, further chain) above

Question: With `CCOC(=O)/C=C/c1ccncc1-c1ccc2cc[nH]c2c1` as the compound, how does the inhibition [1] read?
Answer: 104%

Question: And the GI50 (HCT-116)?
Answer: 2.14 µM

Question: What about the pIC50 (CDK8/Cyclin C) of the same compound?
Answer: 7.92

Question: What about the GI50 (A549) of the same compound?
Answer: 5.74 µM

Question: And the GI50 (MDA-MB-231)?
Answer: 7.98 µM

Question: What about the GI50 (KB) of the same compound?
Answer: 7.86 µM

Question: What about the GI50 [2] of the same compound?
Answer: 7.7 µM

Question: What about the GI50 (MCF7) of the same compound?
Answer: 6.88 µM

Question: What about the inhibition [3] of the same compound?
Answer: Active

Question: What about the pIC50 [4] of the same compound?
Answer: 7.34

Question: Which inhibition [1] does the source give for `O=C(COc1ccncc1-c1ccc2ccccc2c1)N1CCOCC1` here?
Answer: 9%

Question: What does the source list for `CCOC(=O)/C=C/c1ccncc1-c1ccc2[nH]ccc2c1`?
Answer: inhibition [1]: 100%; GI50 (HCT-116): 4.83 µM; pIC50 (CDK8/Cyclin C): 6.97; GI50 (A549): 7.44 µM; GI50 (MDA-MB-231): > 10 µM; GI50 (KB): > 10 µM; GI50 [2]: > 10 µM; GI50 (MCF7): > 10 µM

Question: Which inhibition [1] does the source give for `O=C(/C=C/c1ccncc1-c1ccc2cccnc2c1)N1CCOCC1` here?
Answer: 33%

Question: For `Cn1ncc2cc(-c3cnccc3/C=C/C(=O)N3CCOCC3)ccc21`, which inhibition [1] is on record?
Answer: 95%

Question: And the pIC50 (CDK8/Cyclin C)?
Answer: 6.45

Question: Which results are given for `O=C(/C=C/c1ccncc1-c1ccc2ccccc2c1)NC1CC1`?
Answer: inhibition [1]: 102%; GI50 (HCT-116): 6.18 µM; pIC50 (CDK8/Cyclin C): 7.40; GI50 (A549): 5.84 µM; GI50 (MDA-MB-231): 8.42 µM; GI50 (KB): 6.05 µM; GI50 [2]: 4.77 µM; GI50 (MCF7): 6.84 µM; inhibition [3]: Active

Question: Which inhibition [1] does the source give for `COC1CN(C(=O)/C=C/c2ccncc2-c2ccc3ccccc3c2)C1` here?
Answer: 100%

Question: What about the GI50 (HCT-116) of the same compound?
Answer: > 30 µM

Question: What about the pIC50 (CDK8/Cyclin C) of the same compound?
Answer: 7.37

Question: And the GI50 (A549)?
Answer: > 10 µM

Question: What about the GI50 (MDA-MB-231) of the same compound?
Answer: > 10 µM

Question: And the GI50 (KB)?
Answer: > 10 µM

Question: What about the GI50 [2] of the same compound?
Answer: > 10 µM

Question: What about the GI50 (MCF7) of the same compound?
Answer: > 10 µM

Question: And the inhibition [3]?
Answer: Active

Question: Which inhibition [1] does the source give for `NC(=O)/C=C/c1ccncc1Br` here?
Answer: 81%

Question: What about the pIC50 (CDK8/Cyclin C) of the same compound?
Answer: 5.62

Question: Which results are given for `O=C(/C=C/c1ccncc1-c1ccc2[nH]ccc2c1)N1CCOCC1`?
Answer: inhibition [1]: 97%; pIC50 (CDK8/Cyclin C): 6.72

Question: For `CNC(=O)/C=C/c1ccncc1-c1ccc2cc[nH]c2c1`, which inhibition [1] is on record?
Answer: 103%

Question: What about the GI50 (HCT-116) of the same compound?
Answer: 10.3 µM

Question: And the pIC50 (CDK8/Cyclin C)?
Answer: 7.73

Question: And the GI50 (A549)?
Answer: 7.84 µM

Question: And the GI50 (MDA-MB-231)?
Answer: 7.68 µM

Question: And the GI50 (KB)?
Answer: > 10 µM

Question: What about the GI50 [2] of the same compound?
Answer: 10.9 µM

Question: What about the GI50 (MCF7) of the same compound?
Answer: 9.23 µM

Question: And the inhibition [3]?
Answer: Active

Question: What about the pIC50 [4] of the same compound?
Answer: 7.55

Question: For `Cn1ncc2ccc(-c3cnccc3/C=C/C(=O)N3CCOCC3)cc21`, which inhibition [1] is on record?
Answer: 89%

Question: And the pIC50 (CDK8/Cyclin C)?
Answer: 6.07

Question: Which inhibition [1] does the source give for `O=C(/C=C/c1ccncc1-c1ccc2ncccc2c1)N1CCOCC1` here?
Answer: 80%

Question: And the pIC50 (CDK8/Cyclin C)?
Answer: 5.80

Question: Which results are given for `CCOC(=O)/C=C/c1ccncc1-c1ccc2c(ccn2C)c1`?
Answer: inhibition [1]: 100%; GI50 (HCT-116): 0.21 µM; pIC50 (CDK8/Cyclin C): 6.84; GI50 (A549): 1.72 µM; GI50 (MDA-MB-231): 10.2 µM; GI50 (KB): 6.25 µM; GI50 [2]: 8.19 µM; GI50 (MCF7): 8.67 µM

Question: What does the source list for `Cn1ccc2cc(-c3cnccc3/C=C/C(=O)O)ccc21`?
Answer: inhibition [1]: 102%; GI50 (HCT-116): 7.26 µM; pIC50 (CDK8/Cyclin C): 7.57; GI50 (A549): > 10 µM; GI50 (MDA-MB-231): > 10 µM; GI50 (KB): > 10 µM; GI50 [2]: > 10 µM; GI50 (MCF7): > 10 µM

Question: With `COC(=O)COc1ccncc1-c1ccc2ccccc2c1` as the compound, how does the inhibition [1] read?
Answer: 11%

Question: Which results are given for `CCOC(=O)/C=C/c1ccncc1-c1ccc2ccccc2c1`?
Answer: inhibition [1]: 102%; GI50 (HCT-116): 0.91 µM; pIC50 (CDK8/Cyclin C): 7.27; GI50 (A549): 5.38 µM; GI50 (MDA-MB-231): 8.09 µM; GI50 (KB): > 10 µM; GI50 [2]: 8.89 µM; GI50 (MCF7): 8.32 µM; inhibition [3]: Active

Question: For `NNC(=O)CCc1ccncc1-c1ccc2ccccc2c1`, which inhibition [1] is on record?
Answer: 102%

Question: What about the GI50 (HCT-116) of the same compound?
Answer: > 30 µM

Question: And the pIC50 (CDK8/Cyclin C)?
Answer: 8.11

Question: And the GI50 (A549)?
Answer: > 10 µM

Question: What about the GI50 (MDA-MB-231) of the same compound?
Answer: > 10 µM

Question: And the GI50 (KB)?
Answer: > 10 µM

Question: What about the GI50 [2] of the same compound?
Answer: > 10 µM

Question: What about the GI50 (MCF7) of the same compound?
Answer: > 10 µM

Question: With `CN1CCN(C(=O)/C=C/c2ccncc2-c2ccc(F)cc2)CC1` as the compound, how does the inhibition [1] read?
Answer: 84%

Question: What about the pIC50 (CDK8/Cyclin C) of the same compound?
Answer: 5.92

Question: For `NNC(=O)COc1ccncc1-c1ccc2ccccc2c1`, which inhibition [1] is on record?
Answer: 19%

Question: With `CN1CCN(c2ccc(Nc3cnccc3/C=C/C(N)=O)cc2)CC1` as the compound, how does the inhibition [1] read?
Answer: 75%

Question: What does the source list for `O=C(O)/C=C/c1ccncc1-c1ccc2[nH]ccc2c1`?
Answer: inhibition [1]: 102%; GI50 (HCT-116): > 30 µM; pIC50 (CDK8/Cyclin C): 7.77; GI50 (A549): > 10 µM; GI50 (MDA-MB-231): > 10 µM; GI50 (KB): > 10 µM; GI50 [2]: > 10 µM; GI50 (MCF7): > 10 µM

Question: With `O=C(/C=C/c1ccncc1-c1ccc2ccccc2c1)N1CCOCC1` as the compound, how does the inhibition [1] read?
Answer: 99%

Question: What about the GI50 (HCT-116) of the same compound?
Answer: 6.04 µM

Question: What about the pIC50 (CDK8/Cyclin C) of the same compound?
Answer: 7.22

Question: What about the GI50 (A549) of the same compound?
Answer: 8.41 µM

Question: And the GI50 (MDA-MB-231)?
Answer: 8.98 µM

Question: And the GI50 (KB)?
Answer: > 10 µM

Question: What about the GI50 [2] of the same compound?
Answer: 8.48 µM

Question: What about the GI50 (MCF7) of the same compound?
Answer: > 10 µM

Question: And the inhibition [3]?
Answer: Active

Question: With `COC1CN(C(=O)/C=C/c2ccncc2-c2ccc3[nH]ncc3c2)C1` as the compound, how does the inhibition [1] read?
Answer: 98%

Question: And the pIC50 (CDK8/Cyclin C)?
Answer: 6.83

Question: With `CNC(=O)/C=C/c1ccncc1-c1ccc2ncccc2c1` as the compound, how does the inhibition [1] read?
Answer: 97%

Question: And the pIC50 (CDK8/Cyclin C)?
Answer: 6.60

Question: For `O=C(O)/C=C/c1ccncc1-c1ccc2ccccc2c1`, which inhibition [1] is on record?
Answer: 102%

Question: What about the GI50 (HCT-116) of the same compound?
Answer: > 30 µM

Question: And the pIC50 (CDK8/Cyclin C)?
Answer: 8.30

Question: What about the GI50 (A549) of the same compound?
Answer: > 10 µM

Question: And the GI50 (MDA-MB-231)?
Answer: > 10 µM

Question: And the GI50 (KB)?
Answer: > 10 µM

Question: What about the GI50 [2] of the same compound?
Answer: > 10 µM

Question: What about the GI50 (MCF7) of the same compound?
Answer: > 10 µM

Question: What about the inhibition [3] of the same compound?
Answer: Active
